Patent US10703748B2, “Diazanaphthalen-3-yl carboxamides and preparation and use thereof” (Samumed, LLC, priority 2017, dated 2020)

What was measured:
DYRK1A kinase = DYRK1A kinase (Homo sapiens, UniProt Q13627); assay: DYRK1A kinase activity (Ser/Thr 18 peptide Z-lyte FRET assay); format: biochemical; conditions: recombinant DYRK1A, 30 μM ATP, one hour at room temperature;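 further: kinase activity read as coumarin/fluorescein emission ratio after development step, with unphosphorylated and phosphorylated peptide forms setting 0% and 100% controls, values from dose-response curves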
GSK3β kinase = GSK3β kinase (Homo sapiens, UniProt P49841); assay: GSK3β kinase activity (Ser/Thr 09 peptide Z-lyte FRET assay); format: biochemical; conditions: recombinant kinase, 46 μM ATP, one hour at room temperature; read-out: EC50
GSK3β kinase, sequence (P49841 whole entry): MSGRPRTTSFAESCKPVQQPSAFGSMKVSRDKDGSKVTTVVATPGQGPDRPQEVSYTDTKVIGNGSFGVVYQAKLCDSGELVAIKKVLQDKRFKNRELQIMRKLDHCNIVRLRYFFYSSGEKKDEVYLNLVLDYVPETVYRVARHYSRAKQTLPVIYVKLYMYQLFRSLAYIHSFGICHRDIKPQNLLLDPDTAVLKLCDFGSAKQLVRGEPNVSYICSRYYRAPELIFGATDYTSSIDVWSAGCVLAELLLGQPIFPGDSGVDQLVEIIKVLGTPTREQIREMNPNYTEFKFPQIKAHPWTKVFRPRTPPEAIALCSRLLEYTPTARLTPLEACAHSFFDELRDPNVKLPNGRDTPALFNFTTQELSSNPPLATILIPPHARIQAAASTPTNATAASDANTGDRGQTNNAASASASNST

[1] = test system: secreted cytokines TNFα, IL-6 and KC-GRO; assay: Secreted cytokines in Lipopolysaccharide-stimulated BV-2 cells (Table 9 does not say which cytokine); format: cell-based, mouse; conditions: Mus musculus, BV-2, 5 h; read-out: EC50
Description: BV-2 cells (mouse microglial cells) were cultured in 1:1 DMEM medium supplemented with 10% FBS, and 1% penicillin/streptomycin.
BV-2 cells are plated at 35,000 cells/well in a volume of 100 μl for at least 4 hours before compounds are added. […] Compounds were added to cells overnight. […] Supernatant is removed and saved for further cytokine detection. The original plates with seeded cells were tested for cytotoxicity by measure of adenosine triphosphate (ATP) release by adding CellTiter-Glo® diluted 1:4 in distilled water (G7573, Promega) and transferring lysed cells to a completely black 96-well plate to be read with the Cytation3. Supernatant was then diluted 1:2 with a diluent from V-PLEX cytokine Kit and directly tested for the secreted cytokines TNFα, IL-6 and KC-GRO using electrochemiluminescence (Meso Scale Discovery). The standard curve for each cytokine was used to convert the electrochemiluminescent signal into pg of protein per mL.

[2] = test system: SW480 colon carcinoma cells; assay: Cell viability assay (CellTiter-Glo); conditions: Homo sapiens; for EC50: SW480, 96 h; for inhibition at 10 µM: SW480, read-out: percent inhibition at 10 μM
[3] = test system: Wnt-responsive Sp5-Luc reporter in SW480 colon carcinoma cells; assay: Screening assay for Wnt activity (Sp5-Luc reporter gene assay); conditions: Homo sapiens; for EC50: SW480; for inhibition at 10 µM: SW480, read-out: percent inhibition at 10 μM
IL-6 = IL-6 inhibition in LPS-stimulated human peripheral blood mononuclear cells (HTRF); conditions: Homo sapiens, PBMC; for EC50: 22 h; for inhibition at 10 µM: read-out: percentage in parentheses after EC50 >10
[4] = test system: α-smooth muscle actin (aSMA) positive LL29 cells; assay: Inhibition of the fibrotic process: αSMA staining in TGF-β1 treated LL29 fibroblasts from IPF patients; conditions: Homo sapiens, Fibroblast; for EC50: 96 h; for inhibition at 10 µM: read-out: percentage in parentheses after EC50 >10

Row | SMILES | EC50 (DYRK1A kinase) | EC50 (GSK3β kinase) | EC50 [1] | EC50 [2] | inhibition at 10 µM [2] | EC50 [3] | inhibition at 10 µM [3] | EC50 (IL-6) | inhibition at 10 µM (IL-6) | EC50 [4] | inhibition at 10 µM [4]
1 | Cn1cc(-c2cnc3cnc(NC(=O)C4CCN(Cc5ncccn5)CC4)cc3c2)cn1 [Compound 2820, N-(3-(1-Methyl-1H-pyrazol-4-yl)-1,7-naphthyridin-6-yl)-1-(pyrimidin-2-ylmethyl)piperidine-4-carboxamide] | 37 nM | 7060 nM | 895 nM | > 10000 nM | 22.4% | > 10000 nM | 5.3% | > 10000 nM | 3.3% | 8910 nM | –
2 | CN1CCCN(CC(=O)Nc2cc3cc(-c4cnn(C)c4)cnc3cn2)CC1 [Compound 2826, 2-(4-Methyl-1,4-diazepan-1-yl)-N-(3-(1-methyl-1H-pyrazol-4-yl)-1,7-naphthyridin-6-yl)acetamide] | 82 nM | 5370 nM | 5300 nM | > 10000 nM | 20.4% | > 10000 nM | 11.2% | > 10000 nM | 2.1% | > 10000 nM | 37.9%
3 | CN1CCN(c2ccc(C(=O)Nc3cc4cc(-c5cnn(C)c5)cnc4cn3)cn2)CC1 [Compound 2871, N-(3-(1-Methyl-1H-pyrazol-4-yl)-1,7-naphthyridin-6-yl)-6-(4-methylpiperazin-1-yl)nicotinamide] | 16 nM | > 10000 nM | 1700 nM | 4680 nM | – | > 10000 nM | 24.5% | > 10000 nM | 0% | 9770 nM | –
4 | Cn1cc(-c2cnc3cnc(NC(=O)CCc4ccccc4)cc3c2)cn1 [Compound 2914, N-(3-(1-Methyl-1H-pyrazol-4-yl)-1,7-naphthyridin-6-yl)-3-phenylpropanamide] | 28 nM | 453 nM | 131 nM | 692 nM | – | 751 nM | – | > 10000 nM | 5% | 893 nM | –
5 | Cn1cc(-c2cnc3cnc(NC(=O)c4ccc5ccoc5c4)cc3c2)cn1 [Compound 2929, N-(3-(1-Methyl-1H-pyrazol-4-yl)-1,7-naphthyridin-6-yl)benzofuran-6-carboxamide] | 17 nM | > 10000 nM | 234 nM | 1060 nM | – | 835 nM | – | > 10000 nM | 4.5% | 2250 nM | –
6 | CN1CCC(n2cc(C(=O)Nc3cc4cc(-c5cnn(C)c5)cnc4cn3)cn2)CC1 [Compound 2949, N-(3-(1-Methyl-1H-pyrazol-4-yl)-1,7-naphthyridin-6-yl)-1-(1-methylpiperidin-4-yl)-1H-pyrazole-4-carboxamide] | 24 nM | > 10000 nM | 454 nM | 440 nM | – | 59 nM | – | 9150 nM | – | 5150 nM | –
7 | CC(C)OC(=O)N1CCC(n2cc(C(=O)Nc3cc4cc(-c5cnn(C)c5)cnc4cn3)cn2)CC1 [Compound 2954, Isopropyl 4-(4-((3-(1-methyl-1H-pyrazol-4-yl)-1,7-naphthyridin-6-yl)carbamoyl)-1H-pyrazol-1-yl)piperidine-1-carboxylate] | 28 nM | > 10000 nM | 491 nM | 1500 nM | – | 915 nM | – | > 10000 nM | 45% | 3340 nM | –
8 | CN1CCN(c2cc(C(=O)Nc3cc4cc(-c5cnn(C)c5N)cnc4cn3)ccn2)CC1 [Compound 3024, N-(3-(5-Amino-1-methyl-1H-pyrazol-4-yl)-1,7-naphthyridin-6-yl)-2-(4-methylpiperazin-1-yl)isonicotinamide] | 17 nM | > 10000 nM | 1200 nM | 3370 nM | – | 2610 nM | – | > 10000 nM | 11.1% | > 10000 nM | 50%
9 | CN1CCC2(CC1)CN(c1cc(C(=O)Nc3cc4cc(-c5cnn(C)c5CN5CCCCC5)cnc4cn3)ccn1)C2 [Compound 3032, N-(3-(1-Methyl-5-(piperidin-1-ylmethyl)-1H-pyrazol-4-yl)-1,7-naphthyridin-6-yl)-2-(7-methyl-2,7-diazaspiro[3.5]nonan-2-yl)isonicotinamide] | 8 nM | > 10000 nM | 127 nM | 599 nM | – | 607 nM | – | 1650 nM | – | 1580 nM | –
10 | Cn1cc(-c2cnc3cnc(NC(=O)C4CCN(CC5(C(F)(F)F)CC5)CC4)cc3c2)nn1 [Compound 3067, N-(3-(1-Methyl-1H-1,2,3-triazol-4-yl)-1,7-naphthyridin-6-yl)-1-((1-(trifluoromethyl)cyclopropyl)methyl)piperidine-4-carboxamide] | 58 nM | 836 nM | 3900 nM | > 10000 nM | 42.2% | 4500 nM | – | > 10000 nM | 0% | > 10000 nM | 31.7%
11 | Cn1cncc1-c1cnc2cnc(NC(=O)c3ccc(F)cc3)cc2c1 [Compound 3168, 4-Fluoro-N-(3-(1-methyl-1H-imidazol-5-yl)-1,7-naphthyridin-6-yl) benzamide] | 8 nM | > 10000 nM | 2600 nM | > 10000 nM | 25.8% | > 10000 nM | 17.3% | > 10000 nM | 0% | > 10000 nM | 10.2%
12 | Cn1cncc1-c1cnc2cnc(NC(=O)c3ccc4c(c3)CNC4)cc2c1 [Compound 3194, N-(3-(1-Methyl-1H-imidazol-5-yl)-1,7-naphthyridin-6-yl)isoindoline-5-carboxamide] | 6 nM | > 10000 nM | ≥ 10000 nM | 4070 nM | – | 4780 nM | – | > 10000 nM | 8.9% | > 10000 nM | 47.3%
13 | CC(F)(F)CN1CCC(C(=O)Nc2cc3cc(-c4cnco4)cnc3cn2)CC1 [Compound 3257, 1-(2,2-Difluoropropyl)-N-(3-(oxazol-5-yl)-1,7-naphthyridin-6-yl)piperidine-4-carboxamide] | 16 nM | 5300 nM | 458 nM | > 10000 nM | 15% | > 10000 nM | 12.9% | > 10000 nM | 3.2% | > 10000 nM | 36%
14 | Cn1cncc1-c1cnc2cnc(NC(=O)c3cccc(CN4CCCC4)c3)cc2c1 [Compound 3259, N-(3-(1-Methyl-1H-imidazol-5-yl)-1,7-naphthyridin-6-yl)-3-(pyrrolidin-1-ylmethyl)benzamide] | 24 nM | > 10000 nM | 1200 nM | 1940 nM | – | 3500 nM | – | > 10000 nM | 4.1% | > 10000 nM | 48.4%
15 | CN1CCC(Oc2cccc(C(=O)Nc3cc4cc(-c5cnco5)cnc4cn3)c2)CC1 [Compound 3311, 3-((1-Methylpiperidin-4-yl)oxy)-N-(3-(oxazol-5-yl)-1,7-naphthyridin-6-yl) benzamide] | 7 nM | > 10000 nM | 420 nM | > 10000 nM | 5.4% | > 10000 nM | 4.9% | > 10000 nM | 5.8% | 1440 nM | –
16 | CN1CCC(C(=O)Nc2cc3cc(-c4cnsc4)cnc3cn2)CC1 [Compound 3412, N-(3-(Isothiazol-4-yl)-1,7-naphthyridin-6-yl)-1-methylpiperidine-4-carboxamide] | 40 nM | > 10000 nM | 1500 nM | > 10000 nM | 41.5% | > 10000 nM | 47.1% | > 10000 nM | 2.7% | > 10000 nM | 46.2%
17 | Nc1cncc(-c2cnc3cnc(NC(=O)c4ccc(OC5CCNCC5)cc4)cc3c2)c1 [Compound 3524, N-(3-(5-Aminopyridin-3-yl)-1,7-naphthyridin-6-yl)-4-(piperidin-4-yloxy) benzamide] | 11 nM | > 10000 nM | 582 nM | 3710 nM | – | 3550 nM | – | > 10000 nM | 5.6% | > 10000 nM | 50%
18 | CN1CC=C(c2cc(C(=O)Nc3cc4cc(-c5cncc(NC(C)(C)C)n5)cnc4cn3)ccn2)CC1 [Compound 3587, N-(3-(6-(tert-Butylamino)pyrazin-2-yl)-1,7-naphthyridin-6-yl)-1′-methyl-1′,2′,3′,6′-tetrahydro-[2,4′-bipyridine]-4-carboxamide] | 1 nM | > 10000 nM | 11 nM | 821 nM | – | 357 nM | – | 7660 nM | – | 1440 nM | –
